According to patent EP0745595A1, “3-(3-Aryloxyphenyl)-1-(substituted methyl)-s-triazine-2,4,6-oxo or thiotrione herbicidal agents” (American Cyanamid Company, priority 1995, dated 1996):

Columns and labels:
Format in all cases: in vivo
CHENOPODIUM ALBUM, L. [1] = assay: Postemergence herbicidal evaluation, CHEAL (Lambsquarters, Common); settings: rated four to five weeks after treatment, averaged
Outline: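 Seedlings of common lambsquarters (Chenopodium album) were raised in jiffy flats for roughly two weeks, then sprayed postemergence through a nozzle at 40 psi with test compound dispersed in 50/50 acetone/water containing 0.5% TWEEN®20 surfactant. Plants were kept on greenhouse benches under standard care and rated visually on a 0-9 scale versus controls.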

[2] = test system: ABUTILON THEOPHRASTI, MEDIC.; assay: Preemergence herbicidal evaluation, ABUTH (Velvetleaf); settings: four to five weeks after treatment
Outline: (§1)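 Seeds sown in potting soil cups, then sprayed preemergence with aqueous acetone compound solution at about 0.125 to 0.50 kg per hectare. Greenhouse-grown, rated 4–5 weeks after treatment on a 0–9 visual scale against control.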

[3] = test system: AMBROSIA ARTEMISIIFOLIA, L.; assay: Preemergence herbicidal evaluation, AMBEL (Ragweed, Common); settings: four to five weeks after treatment
Outline: as §1

CHENOPODIUM ALBUM, L. [4] = assay: Preemergence herbicidal evaluation, CHEAL (Lambsquarters, Common); settings: four to five weeks after treatment
Outline: as §1

IPOMOEA SPP. = assay: Preemergence herbicidal evaluation, IPOSS (Morningglory spp.); settings: four to five weeks after treatment
Outline: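 Seeds of morningglory (Ipomoea spp.) were mixed with potting soil and sown on roughly one inch of soil in pint cups for a preemergence herbicide test. The cups were put on greenhouse benches, watered, and maintained by standard greenhouse practice. Four to five weeks after treatment each cup was scored visually on a 0-9 scale against a control.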

[5] = test system: ECHINOCHLOA CRUS-GALLI, (L) BEAU; assay: Preemergence herbicidal evaluation, ECHCG (Barnyardgrass); settings: four to five weeks after treatment
Outline: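 Barnyardgrass seeds were mixed with potting soil and planted on about one inch of soil in pint cups for preemergence testing. Treated cups were kept on greenhouse benches, watered and maintained by standard greenhouse practice. After four to five weeks, each cup was visually rated on a 0-9 scale against an untreated control.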

[6] = test system: SETARIA VIRIDIS, (L) BEAU; assay: Preemergence herbicidal evaluation, SETVI (Foxtail, Green); settings: four to five weeks after treatment
From the text: Results of herbicide evaluation are expressed on a rating scale (0-9). The scale is based upon a visual observation of plant stand, vigor, malformation, size, chlorosis and overall plant appearance as compared with a control.
The preemergence herbicidal activity of the test compounds of the present invention is exemplified by the following tests in which the seeds of a variety of monocotyledonous and dicotyledonous plants are separately mixed with potting soil and planted on top of approximately one inch of soil in separate pint cups. […] The treated cups are then placed on greenhouse benches, watered and cared for in accordance with conventional greenhouse procedures. From four to five weeks after treatment, the tests are terminated and each cup is examined and rated according to the rating system provided in Example 40.
The compounds evaluated are reported by compound number given in Example 40.

[7] = test system: GLYCINE MAX(L) MERR. CV. WILLIAMS; assay: Preemergence herbicidal evaluation, GLXMAW (Soybean, Williams); settings: four to five weeks after treatment
Outline: as §1

[8] = test system: ORYZA SATIVA, L. TEBONNET; assay: Preemergence herbicidal evaluation, ORYSAT (Rice, Tebonnet); settings: four to five weeks after treatment
Outline: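 Seeds of rice (Oryza sativa, Tebonnet) were mixed with potting soil and sown on about one inch of soil in pint cups, then treated preemergence. Cups sat on greenhouse benches, watered and tended by standard greenhouse practice. Four to five weeks after treatment, plants were visually scored on a 0-9 scale relative to a control.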

[9] = test system: TRITICUM AESTIVUM, CV. APOLLO; assay: Preemergence herbicidal evaluation, TRZAWO (Wheat, Winter, CV. APOLLO); settings: four to five weeks after treatment
Outline: as §1

ZEA MAYS L. = assay: Preemergence herbicidal evaluation, ZEAMX (Corn, Field); settings: four to five weeks after treatment
Outline: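 Corn (Zea mays) seeds were mixed with potting soil and planted on about one inch of soil in pint cups, then treated preemergence. Cups were kept on greenhouse benches, watered and maintained conventionally, and after four to five weeks were visually rated on a 0-9 scale versus an untreated control.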

SAGITTARIA PYGMAEA, L. = assay: Preemergence weed control under flooded paddy conditions, SAGPY (Arrowhead (Pygmaea)); settings: preemergence weeds, rated three to four weeks after treatment
Outline: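 Flooded paddy preemergence test: seeds/propagating organs in top 0.5 cm silt loam, water held 1.5-3 cm above soil. Dosing by pipette into flood water, aqueous/acetone 50/50 v/v, ~0.5, 0.25, 0.125, 0.063 kg/ha a.i. Greenhouse; read at 3-4 wk, 0-9 visual scale.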

[10] = test system: ORYZA SATIVA, L. TEBONNET; assay: Rice tolerance to post-transplant applications under flooded paddy conditions, ORYSAT (Rice, Tebonnet); settings: post-transplant rice, rated three to four weeks after treatment;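 note: applied to flooded soil surface three days after transplanting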
Outline: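 Post-transplant paddy test: compound applied 3 d after transplanting to flooded soil (1.5-3 cm water), ~0.063-0.5 kg/ha a.i., 50/50 aq/acetone. Silt loam, 2 × 10-d seedlings/pot. Greenhouse 3-4 wk, visual 0-9 score vs control.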

CCOC(=O)Cn1c(=O)n(CC(=O)OC)c(=O)n(-c2cc(Oc3c(F)cc(C(F)(F)F)cc3Cl)ccc2C#N)c1=O [Compound 12, 1-Ethyl methyl 5-{5-[(2-chloro-α,α,α,6-tetrafluoro-p-tolyl)oxy]-2-cyanophenyl}-dihydro-2,4,6-trioxo-s-triazine-1,3(2H,4H)-diacetate]
0.0: ABUTH rating ([2]; Rate 0.125 kg/ha) | ABUTH rating ([2]; Rate 0.250 kg/ha) | ABUTH rating ([2]; Rate 0.500 kg/ha) | AMBEL rating ([3]; Rate 0.125 kg/ha) | AMBEL rating ([3]; Rate 0.250 kg/ha) | AMBEL rating ([3]; Rate 0.500 kg/ha) | CHEAL rating (CHENOPODIUM ALBUM, L. [4]; Rate 0.125 kg/ha) | CHEAL rating (CHENOPODIUM ALBUM, L. [4]; Rate 0.250 kg/ha) | CHEAL rating (CHENOPODIUM ALBUM, L. [4]; Rate 0.500 kg/ha) | IPOSS rating (IPOMOEA SPP.; Rate 0.125 kg/ha) | IPOSS rating (IPOMOEA SPP.; Rate 0.250 kg/ha) | IPOSS rating (IPOMOEA SPP.; Rate 0.500 kg/ha) | ECHCG rating ([5]; Rate 0.125 kg/ha) | ECHCG rating ([5]; Rate 0.250 kg/ha) | ECHCG rating ([5]; Rate 0.500 kg/ha) | SETVI rating ([6]; Rate 0.125 kg/ha) | SETVI rating ([6]; Rate 0.250 kg/ha) | SETVI rating ([6]; Rate 0.500 kg/ha) | GLXMAW rating ([7]; Rate 0.125 kg/ha) | GLXMAW rating ([7]; Rate 0.250 kg/ha) | GLXMAW rating ([7]; Rate 0.500 kg/ha) | ORYSAT rating ([8]; Rate 0.125 kg/ha) | ORYSAT rating ([8]; Rate 0.250 kg/ha) | ORYSAT rating ([8]; Rate 0.500 kg/ha) | TRZAWO rating ([9]; Rate 0.125 kg/ha) | TRZAWO rating ([9]; Rate 0.250 kg/ha) | TRZAWO rating ([9]; Rate 0.500 kg/ha) | ZEAMX rating (ZEA MAYS L.; Rate 0.125 kg/ha) | ZEAMX rating (ZEA MAYS L.; Rate 0.250 kg/ha) | ZEAMX rating (ZEA MAYS L.; Rate 0.500 kg/ha) | SAGPY herbicidal rating (SAGITTARIA PYGMAEA, L.; Rate 0.063 kg/ha) | SAGPY herbicidal rating (SAGITTARIA PYGMAEA, L.; Rate 0.125 kg/ha) | SAGPY herbicidal rating (SAGITTARIA PYGMAEA, L.; Rate 0.250 kg/ha) | SAGPY herbicidal rating (SAGITTARIA PYGMAEA, L.; Rate 0.500 kg/ha) | ORYSAT herbicidal rating (rice tolerance) ([10]; Rate 0.063 kg/ha) | ORYSAT herbicidal rating (rice tolerance) ([10]; Rate 0.125 kg/ha) | ORYSAT herbicidal rating (rice tolerance) ([10]; Rate 0.250 kg/ha)
1.0: ORYSAT herbicidal rating (rice tolerance) ([10]; Rate 0.500 kg/ha)
9.0: CHEAL, herbicide rating (0-9) (CHENOPODIUM ALBUM, L. [1]; Rate 0.125 kg/ha) | CHEAL, herbicide rating (0-9) (CHENOPODIUM ALBUM, L. [1]; Rate 0.250 kg/ha) | CHEAL, herbicide rating (0-9) (CHENOPODIUM ALBUM, L. [1]; Rate 0.500 kg/ha)
